This passage reports activation results from article PMC10175918 (Communications Biology, 2023).

Read-outs that look alike come from different tables or passages of the source.

Assay in all cases: TGFα-shedding assay-based GPCR screening with chimeric Gα subunit proteins
What all share (format): cell-based

Test [1] addresses T1, 348 GPCRs (Homo sapiens, UniProt Q86SP6).
T1 construct: expressed in transfected cells; host or cells: HEK293A
T1 sequence (Q86SP6 1-731): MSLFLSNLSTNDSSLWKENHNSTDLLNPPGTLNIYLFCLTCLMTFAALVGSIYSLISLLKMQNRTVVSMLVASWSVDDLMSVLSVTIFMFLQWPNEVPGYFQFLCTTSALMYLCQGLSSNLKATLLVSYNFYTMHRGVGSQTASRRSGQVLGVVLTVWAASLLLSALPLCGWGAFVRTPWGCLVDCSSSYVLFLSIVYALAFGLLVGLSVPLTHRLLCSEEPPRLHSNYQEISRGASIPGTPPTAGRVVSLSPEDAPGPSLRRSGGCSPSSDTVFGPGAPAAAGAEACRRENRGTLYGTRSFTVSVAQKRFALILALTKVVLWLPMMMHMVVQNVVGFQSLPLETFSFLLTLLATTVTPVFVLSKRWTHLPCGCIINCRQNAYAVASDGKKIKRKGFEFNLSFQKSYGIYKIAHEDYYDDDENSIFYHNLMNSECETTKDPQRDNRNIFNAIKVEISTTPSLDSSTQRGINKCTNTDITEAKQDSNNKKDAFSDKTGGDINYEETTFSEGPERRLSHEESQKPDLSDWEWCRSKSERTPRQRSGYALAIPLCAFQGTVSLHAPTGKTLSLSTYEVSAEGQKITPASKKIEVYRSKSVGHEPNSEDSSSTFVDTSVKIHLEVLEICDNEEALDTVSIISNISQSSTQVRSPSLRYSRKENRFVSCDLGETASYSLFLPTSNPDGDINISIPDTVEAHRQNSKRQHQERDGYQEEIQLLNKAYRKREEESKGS
The settings on record: 10µM, Favipiravir 100μM.

The target in test [2] is T2, 348 GPCRs (Homo sapiens, UniProt P28335).
T2 sequence (P28335 33-458): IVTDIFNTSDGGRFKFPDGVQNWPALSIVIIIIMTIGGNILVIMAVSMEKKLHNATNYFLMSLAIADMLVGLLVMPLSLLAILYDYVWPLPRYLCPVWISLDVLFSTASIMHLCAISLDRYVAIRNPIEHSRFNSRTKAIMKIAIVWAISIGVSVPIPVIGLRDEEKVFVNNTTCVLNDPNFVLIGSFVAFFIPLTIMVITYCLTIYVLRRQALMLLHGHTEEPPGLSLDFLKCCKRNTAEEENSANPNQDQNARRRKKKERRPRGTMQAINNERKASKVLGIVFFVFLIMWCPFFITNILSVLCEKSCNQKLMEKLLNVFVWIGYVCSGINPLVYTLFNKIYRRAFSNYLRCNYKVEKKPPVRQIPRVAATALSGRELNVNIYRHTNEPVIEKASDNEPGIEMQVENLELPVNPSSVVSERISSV
The settings on record: 10µM, Favipiravir 100μM.

Test [3] deals with T3, 348 GPCRs (Homo sapiens, UniProt P25100).
T3 construct: expressed in transfected cells; host or cells: HEK293A
T3 sequence (P25100 1-572): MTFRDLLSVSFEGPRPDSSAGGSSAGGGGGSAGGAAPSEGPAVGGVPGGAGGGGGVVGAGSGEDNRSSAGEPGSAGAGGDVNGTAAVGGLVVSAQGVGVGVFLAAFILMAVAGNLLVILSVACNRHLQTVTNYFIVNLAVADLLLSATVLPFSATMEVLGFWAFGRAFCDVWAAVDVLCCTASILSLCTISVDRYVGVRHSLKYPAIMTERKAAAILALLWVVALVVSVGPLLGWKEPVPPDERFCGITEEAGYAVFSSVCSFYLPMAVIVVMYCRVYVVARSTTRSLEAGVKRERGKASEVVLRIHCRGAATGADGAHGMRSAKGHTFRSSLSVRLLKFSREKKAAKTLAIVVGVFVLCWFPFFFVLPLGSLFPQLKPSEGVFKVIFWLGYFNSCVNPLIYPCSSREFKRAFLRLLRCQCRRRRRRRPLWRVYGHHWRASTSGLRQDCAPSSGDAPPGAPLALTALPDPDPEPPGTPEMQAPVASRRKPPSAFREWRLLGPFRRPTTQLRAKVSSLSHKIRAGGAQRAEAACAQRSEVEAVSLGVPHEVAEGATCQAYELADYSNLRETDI

Test [4] concerns the target T4, 348 GPCRs (Homo sapiens, UniProt Q9NQ84).
T4 construct: expressed in transfected cells; host or cells: HEK293A
To be noted: 10µM, Favipiravir 100μM.

Test [5] concerns the target T5, 348 GPCRs (Homo sapiens, UniProt P46092).
T5 construct: expressed in transfected cells; host or cells: HEK293A
T5 sequence (P46092 1-362): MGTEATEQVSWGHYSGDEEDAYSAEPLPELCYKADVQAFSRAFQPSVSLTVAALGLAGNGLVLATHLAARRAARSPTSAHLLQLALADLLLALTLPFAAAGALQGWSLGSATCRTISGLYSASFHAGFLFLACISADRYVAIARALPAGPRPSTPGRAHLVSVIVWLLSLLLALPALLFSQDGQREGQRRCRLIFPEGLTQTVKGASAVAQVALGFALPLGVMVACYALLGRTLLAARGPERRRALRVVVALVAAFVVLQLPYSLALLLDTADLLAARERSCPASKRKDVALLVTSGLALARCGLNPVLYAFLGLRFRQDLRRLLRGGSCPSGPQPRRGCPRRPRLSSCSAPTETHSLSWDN
The settings on record: 10µM, Favipiravir 100μM.

In test [6] the target is T6, 348 GPCRs (Homo sapiens, UniProt P51677).
T6 construct: expressed in transfected cells; host or cells: HEK293A
T6 sequence (P51677 1-355): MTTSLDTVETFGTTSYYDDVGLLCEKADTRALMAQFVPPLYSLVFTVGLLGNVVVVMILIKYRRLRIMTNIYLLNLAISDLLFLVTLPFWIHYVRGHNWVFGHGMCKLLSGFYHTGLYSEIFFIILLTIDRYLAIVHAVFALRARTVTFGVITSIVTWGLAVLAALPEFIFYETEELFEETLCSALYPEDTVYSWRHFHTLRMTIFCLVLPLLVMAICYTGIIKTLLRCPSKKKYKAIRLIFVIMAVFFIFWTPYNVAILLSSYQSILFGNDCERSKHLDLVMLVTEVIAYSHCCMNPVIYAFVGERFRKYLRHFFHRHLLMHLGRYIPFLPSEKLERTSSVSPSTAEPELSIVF
To be noted: 10µM, Favipiravir 100μM.

Setting [7] is: GPR149 (G protein-coupled receptor 149), read-out: % GPCR activation compared to TPA.
Where [8] appears, read: 5-HT2C (5-hydroxytryptamine receptor 2C), read-out: % GPCR activation compared to TPA.
The mark [9] stands for this setting: GPRC5C (G protein-coupled receptor, family C, group 5, member C), read-out: % GPCR activation compared to TPA.
Setting [10] is: CCR10 (C-C motif chemokine receptor 10), read-out: % GPCR activation compared to TPA.
Setting [11] is: CCR3 (C-C motif chemokine receptor 3), read-out: % GPCR activation compared to TPA.
Setting [12] is: read-out: % GPCR activation compared to TPA, GPR149 (G protein-coupled receptor 149).
The mark [13] stands for this setting: read-out: % GPCR activation compared to TPA, 5-HT2C (5-hydroxytryptamine receptor 2C).
The mark [14] stands for this setting: read-out: % GPCR activation compared to TPA, GPCR α1D (adrenoceptor alpha 1D).
Setting [15] is: read-out: % GPCR activation compared to TPA, GPRC5C (G protein-coupled receptor, family C, group 5, member C).
Where [16] appears, read: read-out: % GPCR activation compared to TPA, CCR10 (C-C motif chemokine receptor 10).
Where [17] appears, read: read-out: % GPCR activation compared to TPA, CCR3 (C-C motif chemokine receptor 3).
Where [18] appears, read: GPCR α1D (adrenoceptor alpha 1D), read-out: % GPCR activation compared to TPA.

T4 sequence (Q9NQ84 24-441): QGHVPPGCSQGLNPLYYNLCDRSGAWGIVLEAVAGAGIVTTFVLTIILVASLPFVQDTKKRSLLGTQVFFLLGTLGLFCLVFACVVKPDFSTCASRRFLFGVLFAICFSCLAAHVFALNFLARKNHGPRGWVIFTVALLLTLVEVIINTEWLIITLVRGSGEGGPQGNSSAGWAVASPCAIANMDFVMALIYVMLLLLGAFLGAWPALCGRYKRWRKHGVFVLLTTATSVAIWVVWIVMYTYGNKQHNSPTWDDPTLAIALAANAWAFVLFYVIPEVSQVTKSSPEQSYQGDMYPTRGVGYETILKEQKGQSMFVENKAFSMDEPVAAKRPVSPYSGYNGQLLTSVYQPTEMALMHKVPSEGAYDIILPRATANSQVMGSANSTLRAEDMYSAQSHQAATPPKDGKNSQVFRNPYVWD

For `NC(=O)c1nc(F)cnc1O` [favipiravir, 6-fluoro-3-hydroxy-2-pyrazinecarboxamide], the activation at 100 µM was 0.0439% on 348 GPCRs [1] (setting [7]); 3.15% at 348 GPCRs [2] (setting [8]); 1.16% on 348 GPCRs [3] (GPCR α1D (adrenoceptor alpha 1D), 100μM, read-out: % GPCR activation compared to TPA); -1.31% at 348 GPCRs [4] (setting [9]); -6.03% at 348 GPCRs [5] (setting [10]); 2.7% at 348 GPCRs [6] (setting [11]).
Turning to `CC(C)OC(=O)[C@H](C)N[P@](=O)(OC[C@H]1O[C@@H](n2ccc(=O)[nH]c2=O)[C@](C)(F)[C@@H]1O)Oc1ccccc1` [sofosbuvir], the activation at 100 µM was -7.06% on 348 GPCRs [1] (setting [12]); -0.973% at 348 GPCRs [2] (setting [13]); -0.501% at 348 GPCRs [4] (setting [15]); 0.131% at 348 GPCRs [5] (setting [16]); -1.65% on 348 GPCRs [6] (setting [17]). The activation at 10 µM on 348 GPCRs [3] (setting [14]) came to 0.0197%.
Regarding `CCC(CC)COC(=O)[C@H](C)N[P@](=O)(OC[C@H]1O[C@@](C#N)(c2ccc3c(N)ncnn23)[C@H](O)[C@@H]1O)Oc1ccccc1` [remdesivir], the activation at 100 µM at 348 GPCRs [1] (setting [12]) is -0.636%; at 348 GPCRs [2] (setting [13]) it was -0.0017%; at 348 GPCRs [4] (setting [15]), -1.81%; at 348 GPCRs [5] (setting [16]) it was -7.76%; on 348 GPCRs [6] (setting [17]) it was 7.61%. The activation at 10 µM on 348 GPCRs [3] (setting [14]) was found to be 1.67%.
In the case of `N#C[C@@]1(c2ccc3c(N)ncnn23)O[C@H](CO)[C@@H](O)[C@H]1O` [GS441524], the activation at 100 µM at 348 GPCRs [1] (setting [7]) was -0.814%; on 348 GPCRs [2] (setting [8]), 0.017%; at 348 GPCRs [4] (setting [9]), -1%; on 348 GPCRs [5] (setting [10]), -6.97%; on 348 GPCRs [6] (setting [11]), 3.06%. The activation at 10 µM on 348 GPCRs [3] (setting [18]) is -1.11%.
For the molecule `CC(C)C(=O)OC[C@H]1O[C@@H](n2ccc(NO)nc2=O)[C@H](O)[C@@H]1O` [molnupiravir], the activation at 100 µM at 348 GPCRs [1] (setting [7]) was -41.7%; on 348 GPCRs [2] (setting [8]), -2.97%; at 348 GPCRs [4] (setting [9]), -0.707%; on 348 GPCRs [5] (setting [10]), 0.0221%; on 348 GPCRs [6] (setting [11]), -0.741%. Besides, the activation at 10 µM at 348 GPCRs [3] (setting [18]) is 0.273%.
